Several values for one entry are separate records, joined by “and”; a condition that tells them apart may be missing. Identical values can stand only once. ± gives the expanded uncertainty stated by the source.
Assay: molar heat capacity at constant volume; wn = mass fraction of the nth substance listed
Settings: Fluid (supercritical or subcritical phases), Vacuum adiabatic calorimetry, w1 = 0.5001

For `FC(F)C(F)(F)F` [pentafluoroethane] + FCF, the “molar heat capacity at constant volume” value (301 K, 4414 kPa) was 70.23 ± 1.4 J/K/mol, the “molar heat capacity at constant volume” value (302 K, 4977 kPa) was 70.17 ± 1.4 J/K/mol and the “molar heat capacity at constant volume” value (303 K, 5537 kPa) was 70.3 ± 1.4 J/K/mol. The “molar heat capacity at constant volume” value (303 K, 5540 kPa) was 70.03 ± 1.4 J/K/mol, the “molar heat capacity at constant volume” value (304 K, 6101 kPa) was 69.82 ± 1.4 J/K/mol and the “molar heat capacity at constant volume” value (304 K, 6103 kPa) was 69.96 ± 1.4 J/K/mol. For the same compound, the “molar heat capacity at constant volume” value (305 K, 6663 kPa) was 69.83 ± 1.4 J/K/mol and 69.76 ± 1.4 J/K/mol, the “molar heat capacity at constant volume” value (306 K, 7227 kPa) was 69.97 ± 1.4 J/K/mol and the “molar heat capacity at constant volume” value (306 K, 7228 kPa) was 70.45 ± 1.4 J/K/mol. The “molar heat capacity at constant volume” value (307 K, 7791 kPa) was 70.07 ± 1.4 J/K/mol, the “molar heat capacity at constant volume” value (307 K, 7792 kPa) was 70.29 ± 1.4 J/K/mol and the “molar heat capacity at constant volume” value (308 K, 8356 kPa) was 69.75 ± 1.4 J/K/mol. For the same compound, the “molar heat capacity at constant volume” value (308 K, 8357 kPa) was 69.97 ± 1.4 J/K/mol, the “molar heat capacity at constant volume” value (309 K, 8918 kPa) was 70.23 ± 1.4 J/K/mol and 69.75 ± 1.4 J/K/mol and the “molar heat capacity at constant volume” value (310 K, 9482 kPa) was 70.03 ± 1.4 J/K/mol. For the same compound, the “molar heat capacity at constant volume” value (310 K, 9484 kPa) was 69.9 ± 1.4 J/K/mol, the “molar heat capacity at constant volume” value (311 K, 10048 kPa) was 70.12 ± 1.4 J/K/mol and the “molar heat capacity at constant volume” value (311 K, 10049 kPa) was 69.86 ± 1.4 J/K/mol. For the same compound, the “molar heat capacity at constant volume” value (312 K, 10614 kPa) was 69.67 ± 1.4 J/K/mol, the “molar heat capacity at constant volume” value (312 K, 10615 kPa) was 69.66 ± 1.4 J/K/mol and the “molar heat capacity at constant volume” value (313 K, 11178 kPa) was 69.33 ± 1.4 J/K/mol. For the same compound, the “molar heat capacity at constant volume” value (313 K, 11179 kPa) was 69.43 ± 1.4 J/K/mol, the “molar heat capacity at constant volume” value (314 K, 11741 kPa) was 69.02 ± 1.4 J/K/mol and the “molar heat capacity at constant volume” value (314 K, 11743 kPa) was 69.3 ± 1.4 J/K/mol. For the same compound, the “molar heat capacity at constant volume” value (315 K, 12309 kPa) was 69.15 ± 1.4 J/K/mol and 68.67 ± 1.4 J/K/mol, the “molar heat capacity at constant volume” value (316 K, 12875 kPa) was 69.06 ± 1.4 J/K/mol and the “molar heat capacity at constant volume” value (316 K, 12877 kPa) was 68.75 ± 1.4 J/K/mol. For the same compound, the “molar heat capacity at constant volume” value (317 K, 13440 kPa) was 68.83 ± 1.4 J/K/mol and 68.21 ± 1.4 J/K/mol, the “molar heat capacity at constant volume” value (318 K, 14003 kPa) was 67.4 ± 1.4 J/K/mol and the “molar heat capacity at constant volume” value (318 K, 14005 kPa) was 68 ± 1.4 J/K/mol. For the same compound, the “molar heat capacity at constant volume” value (319 K, 14570 kPa) was 67.78 ± 1.4 J/K/mol, the “molar heat capacity at constant volume” value (319 K, 14571 kPa) was 68.05 ± 1.4 J/K/mol and the “molar heat capacity at constant volume” value (320 K, 15135 kPa) was 67.81 ± 1.4 J/K/mol. For the same compound, the “molar heat capacity at constant volume” value (320 K, 15137 kPa) was 68.49 ± 1.4 J/K/mol, the “molar heat capacity at constant volume” value (321 K, 15700 kPa) was 67.05 ± 1.4 J/K/mol and the “molar heat capacity at constant volume” value (321 K, 15701 kPa) was 67.37 ± 1.4 J/K/mol. The “molar heat capacity at constant volume” value (322 K, 16263 kPa) was 66.48 ± 1.3 J/K/mol, the “molar heat capacity at constant volume” value (322 K, 16265 kPa) was 66.83 ± 1.4 J/K/mol and the “molar heat capacity at constant volume” value (323 K, 16830 kPa) was 66.97 ± 1.4 J/K/mol and 66.81 ± 1.4 J/K/mol. The “molar heat capacity at constant volume” value (324 K, 17394 kPa) was 66.92 ± 1.4 J/K/mol, the “molar heat capacity at constant volume” value (324 K, 17396 kPa) was 66.39 ± 1.3 J/K/mol and the “molar heat capacity at constant volume” value (325 K, 5448 kPa) was 69.93 ± 1.4 J/K/mol. The “molar heat capacity at constant volume” value (325 K, 17959 kPa) was 66.13 ± 1.3 J/K/mol, the “molar heat capacity at constant volume” value (325 K, 17961 kPa) was 66.31 ± 1.3 J/K/mol and the “molar heat capacity at constant volume” value (326 K, 5835 kPa) was 69.81 ± 1.4 J/K/mol. The “molar heat capacity at constant volume” value (326 K, 5836 kPa) was 71.48 ± 1.4 J/K/mol, the “molar heat capacity at constant volume” value (326 K, 18524 kPa) was 65.89 ± 1.3 J/K/mol and the “molar heat capacity at constant volume” value (326 K, 18525 kPa) was 66.07 ± 1.3 J/K/mol. The “molar heat capacity at constant volume” value (327 K, 6224 kPa) was 70.12 ± 1.4 J/K/mol, the “molar heat capacity at constant volume” value (327 K, 6225 kPa) was 69.92 ± 1.4 J/K/mol and the “molar heat capacity at constant volume” value (327 K, 19088 kPa) was 66.16 ± 1.3 J/K/mol. The “molar heat capacity at constant volume” value (327 K, 19090 kPa) was 66.42 ± 1.3 J/K/mol, the “molar heat capacity at constant volume” value (328 K, 6615 kPa) was 70.49 ± 1.4 J/K/mol and the “molar heat capacity at constant volume” value (328 K, 6616 kPa) was 71.47 ± 1.4 J/K/mol. For the same compound, the “molar heat capacity at constant volume” value (328 K, 19652 kPa) was 66.1 ± 1.3 J/K/mol, the “molar heat capacity at constant volume” value (328 K, 19655 kPa) was 66.08 ± 1.3 J/K/mol and the “molar heat capacity at constant volume” value (329 K, 7006 kPa) was 70.47 ± 1.4 J/K/mol. For the same compound, the “molar heat capacity at constant volume” value (329 K, 7007 kPa) was 71.63 ± 1.4 J/K/mol, the “molar heat capacity at constant volume” value (330 K, 7397 kPa) was 69.74 ± 1.4 J/K/mol and the “molar heat capacity at constant volume” value (330 K, 7399 kPa) was 71.02 ± 1.4 J/K/mol. The “molar heat capacity at constant volume” value (331 K, 7788 kPa) was 69.69 ± 1.4 J/K/mol, the “molar heat capacity at constant volume” value (331 K, 7790 kPa) was 71.06 ± 1.4 J/K/mol and the “molar heat capacity at constant volume” value (332 K, 8183 kPa) was 71.27 ± 1.4 J/K/mol. For the same compound, the “molar heat capacity at constant volume” value (332 K, 8184 kPa) was 70.57 ± 1.4 J/K/mol, the “molar heat capacity at constant volume” value (333 K, 8579 kPa) was 70.36 ± 1.4 J/K/mol and 71.51 ± 1.4 J/K/mol and the “molar heat capacity at constant volume” value (334 K, 8970 kPa) was 71.08 ± 1.4 J/K/mol. For the same compound, the “molar heat capacity at constant volume” value (334 K, 8971 kPa) was 69.51 ± 1.4 J/K/mol, the “molar heat capacity at constant volume” value (335 K, 9364 kPa) was 69.28 ± 1.4 J/K/mol and 70.76 ± 1.4 J/K/mol and the “molar heat capacity at constant volume” value (336 K, 9759 kPa) was 69.92 ± 1.4 J/K/mol and 70.89 ± 1.4 J/K/mol. For the same compound, the “molar heat capacity at constant volume” value (337 K, 10156 kPa) was 71.33 ± 1.4 J/K/mol, the “molar heat capacity at constant volume” value (337 K, 10157 kPa) was 70.6 ± 1.4 J/K/mol and the “molar heat capacity at constant volume” value (338 K, 6179 kPa) was 73.09 ± 1.5 J/K/mol. The “molar heat capacity at constant volume” value (338 K, 10552 kPa) was 71.08 ± 1.4 J/K/mol, the “molar heat capacity at constant volume” value (338 K, 10553 kPa) was 69.86 ± 1.4 J/K/mol and the “molar heat capacity at constant volume” value (339 K, 6478 kPa) was 73.25 ± 1.5 J/K/mol. For the same compound, the “molar heat capacity at constant volume” value (339 K, 10948 kPa) was 68.64 ± 1.4 J/K/mol and 70.46 ± 1.4 J/K/mol, the “molar heat capacity at constant volume” value (340 K, 6782 kPa) was 73.55 ± 1.5 J/K/mol and the “molar heat capacity at constant volume” value (340 K, 11344 kPa) was 69.16 ± 1.4 J/K/mol. For the same compound, the “molar heat capacity at constant volume” value (340 K, 11346 kPa) was 71.1 ± 1.4 J/K/mol, the “molar heat capacity at constant volume” value (341 K, 7089 kPa) was 73.85 ± 1.5 J/K/mol and the “molar heat capacity at constant volume” value (341 K, 11743 kPa) was 69.77 ± 1.4 J/K/mol. For the same compound, the “molar heat capacity at constant volume” value (341 K, 11745 kPa) was 71.13 ± 1.4 J/K/mol, the “molar heat capacity at constant volume” value (342 K, 7389 kPa) was 73.14 ± 1.5 J/K/mol and the “molar heat capacity at constant volume” value (342 K, 12139 kPa) was 69.04 ± 1.4 J/K/mol. For the same compound, the “molar heat capacity at constant volume” value (342 K, 12142 kPa) was 70.69 ± 1.4 J/K/mol, the “molar heat capacity at constant volume” value (343 K, 7693 kPa) was 72.74 ± 1.5 J/K/mol and the “molar heat capacity at constant volume” value (343 K, 12536 kPa) was 68.97 ± 1.4 J/K/mol. The “molar heat capacity at constant volume” value (343 K, 12538 kPa) was 70.99 ± 1.4 J/K/mol, the “molar heat capacity at constant volume” value (344 K, 7998 kPa) was 73.01 ± 1.5 J/K/mol and the “molar heat capacity at constant volume” value (344 K, 12935 kPa) was 69.06 ± 1.4 J/K/mol. For the same compound, the “molar heat capacity at constant volume” value (344 K, 12936 kPa) was 70.57 ± 1.4 J/K/mol, the “molar heat capacity at constant volume” value (345 K, 8306 kPa) was 73.42 ± 1.5 J/K/mol and the “molar heat capacity at constant volume” value (345 K, 13334 kPa) was 70.04 ± 1.4 J/K/mol. For the same compound, the “molar heat capacity at constant volume” value (346 K, 8612 kPa) was 73.52 ± 1.5 J/K/mol, the “molar heat capacity at constant volume” value (346 K, 13733 kPa) was 70.31 ± 1.4 J/K/mol and the “molar heat capacity at constant volume” value (347 K, 6281 kPa) was 76.51 ± 1.5 J/K/mol. The “molar heat capacity at constant volume” value (347 K, 8917 kPa) was 72.76 ± 1.5 J/K/mol and the “molar heat capacity at constant volume” value (347 K, 14131 kPa) was 69.61 ± 1.4 J/K/mol.
